The structures appear in SMILES notation.

The nature of the series: Permanent solvent physical constant beta. The format is physicochemical. The settings on record: permanent solvent constant as defined by Kamlet et al. From the text:
The materials of the invention can be added to a mixture containing silver halide before coating or, more suitably, be mixed with the silver halide just prior to or during coating. In either case, additional components like couplers, […], surfactants, hardeners and other materials that are typically present in such solutions may also be present at the same time. The materials of the invention are not water-soluble and cannot be added directly to the solution. They may be added directly if dissolved in an organic water miscible solution such as methanol, acetone or the like or more preferably as a dispersion. A dispersion incorporates the material in a stable, finely divided state in a hydrophobic organic solvent (often referred to as a coupler solvent or permanent solvent) that is stabilized by suitable surfactants and surface active agents usually in combination with a binder or matrix such as gelatin. The dispersion may contain one or more permanent solvents that dissolve the material and maintain it in a liquid state. Some examples of suitable permanent solvents are tricresylphosphate, N,N-diethyllauramide, N,N-dibutyllauramide, p-dodecylphenol, dibutylphthalate, di-n-butyl sebacate, N-n-butylacetanilide, 9-octadecen-1-ol, ortho-methylphenyl benzoate, trioctylamine and 2-ethylhexylphosphate. Permanent solvents can also be described in terms of physical constants such as alpha, beta and pi* as defined by M. J. Kamlet, J-L. M. Abboud, M. H. Abraham and R. W. Taft, J. Org Chem, 48, 2877(1983). The preferred permanent solvents used with the materials of the invention are those with ClogP of 5.0 or greater and beta values of 0.4 or greater or more preferably, beta values of 0.5 or greater. Preferred classes of solvents are carbonamides, phosphates, alcohols and esters. When a solvent is present, it is preferred that the weight ratio of compound to solvent be at least 1 to 0.5, or most preferably, at least 1 to 1. […]
As for `CCCCCCCC/C=C\CCCCCCCCO` [(Z)-9-octadecen-1-ol], the beta amounted to 0.71. The figure for `CCCCCCCCCCCC(=O)N(CCCC)CCCC` [N,N-dibutyllauramide] is 0.93; for `Cc1ccccc1OC(=O)c1ccccc1` [ortho-methylphenyl benzoate] it is 0.43.

Source of the values: patent publication US6455242B1, “Color photographic element containing speed improving compound” (Eastman Kodak Company, priority 1998, dated 2002).
